These results are taken from article PMC3549034 (Cancer research, 2012).

A word on the IC50: it is the concentration needed to halve the response being measured. A lower IC50 goes with greater potency.

For the assay, the target named is Aurora B (Homo sapiens, UniProt Q96GD4). In kind it is biochemical.
Sequence of Aurora B (Q96GD4 whole entry): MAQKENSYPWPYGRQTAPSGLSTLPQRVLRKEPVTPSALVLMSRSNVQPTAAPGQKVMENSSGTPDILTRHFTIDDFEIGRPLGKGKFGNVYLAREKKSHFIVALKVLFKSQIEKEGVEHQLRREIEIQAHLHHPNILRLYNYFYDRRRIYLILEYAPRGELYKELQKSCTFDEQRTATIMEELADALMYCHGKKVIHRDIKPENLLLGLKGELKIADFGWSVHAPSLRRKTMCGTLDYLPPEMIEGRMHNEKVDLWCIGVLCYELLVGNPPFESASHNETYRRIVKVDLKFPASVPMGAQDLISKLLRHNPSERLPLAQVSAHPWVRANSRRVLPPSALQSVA

As for `O=C(/C=C/c1ccc2c(c1)OCO2)/C=C1/C(=O)Nc2ccccc21` [HOI-07, (E)-3-((E)-4-(benzo[d][1,3]dioxol-5-yl)-2-oxobut-3-en-1-ylidene)indolin-2-one], the IC50 is about 100 nM.
